Laboratory results taken from PMC8305076, “Comprehensive Evaluation of Biological Effects of Pentathiepins on Various Human Cancer Cell Lines and Insights into Their Mode of Action” (International Journal of Molecular Sciences, 2021).

Experiments:
YAPC = assay: DCFDA flow cytometric ROS assay, acute; type: cell-based, human; conditions: 25 µM, 15 min
Method: According to the hypothesized mechanism of action (see Figure 3), pentathiepins can create oxidative stress via generation of reactive sulfur precursors. We have previously reported that a representative pentathiepin can increase the intracellular levels of ROS in two cancer cell lines. This effect was thus further evaluated with the new compounds in seven cell lines (Figure 8). The cells were incubated for 15 min with 25.0 µM pentathiepin and subsequently analyzed by using the intracellular ROS sensor 2′,7′-dichlorodihydrofluorescein diacetate (DCFDA) by flow cytometry.
In order to quantify intracellular ROS, we performed a flow cytometric assay based on the ROS-sensor 2′,7′-dichlorofluorescein diacetate (DCFDA). For acute effects of pentathiepins on intracellular ROS levels, the cells were stained with DCFDA first and subsequently incubated with 25 µM of compound for 10 min. […] Per condition, 250,000 cells were seeded in 2 mL of medium per well of a 6-well plate and allowed to adhere overnight. For measurement of acute ROS, the cells were stained with 1 mL of a 20 µM DCFDA-PBS solution for 30 min under standard incubation conditions. Afterwards, the solution was discarded, and the monolayer washed twice with 1 mL of PBS before 3 mL of medium containing 25 µM of pentathiepin was added for 10 min at 37 °C. After removing the solution and washing again with PBS, the cells were detached by using 0.5 mL of a diluted trypsin/EDTA-PBS solution (25%) and harvested with 1 mL of culture medium by carefully rinsing the wells. The cell suspension was transferred to 1.5 mL tubes, centrifuged for 5 min at 500× g, and washed with 1 mL of PBS. After removing the supernatant, each pellet was resuspended in 0.5 mL of PBS for measurement via the MACSquant Analyzer 10 at λEx/Em = 488/530 nm. Relative ROS levels resulting from treatment with pentathiepin were calculated by relating the fluorescence intensity of treated samples to the negative control. For the experiments covering periods of 24 and 48 h, the cells were incubated with the compounds first and stained with DCFDA afterwards. To assess the influence of additional GSH, we included 3 or 30 µM GSH to the medium containing 25 µM of pentathiepin, and the protocol was followed as described.

A2780 = assay: cell cycle analysis (PI staining); type: cell-based, human; conditions: IC90, 48 h
Method: The potent cytotoxicity and the potential to inhibit the proliferation of cancer cells accompanied by DNA damage effects raised the question as to whether cell cycle progression might be affected as a result of treatment with pentathiepins.
Cells were harvested by trypsinization, collected in 1.5 mL tubes, and washed twice with PBS by centrifuging for 5 min at 500× g and discarding the supernatant after every step. For fixation, 500 µL of ice-cold ethanol (70%) was added dropwise under vortexing with a subsequent incubation on ice for 30 min. Then, the cells were centrifuged for 10 min at 4000 rpm and 4 °C, the supernatant was removed, and the cells were resuspended in 500 µL of PBS containing 25 µg/mL of PI and 100 µg/mL of RNase. The staining solution was incubated for 30 min, and the cell suspension was measured at λEx/Em = 488/655–730 nm using a MACSquant Analyzer 10 (Miltenyi Biotec, Teterow, Germany).

Row | SMILES | intracellular ROS levels (YAPC) | relative amount of sub G1-phase cells (A2780) [%]
1 | CCOc1c2c(c3ccc(C(=O)N4CCN(C(=O)c5ccc(F)cc5)CC4)cn13)SSSSS2 [Compound 5, (6-Ethoxy-[1,2,3,4,5]pentathiepino[6,7-a]indolizin-9-yl)(4-(4-fluorobenzoyl)piperazinyl)methanone] | the only increase was monitored after incubation with 5 | 
2 | CCOc1c2c(c3ccc(C(=O)N4CCN(S(=O)(=O)c5ccc(C)cc5)CC4)cn13)SSSSS2 [Compound 6, (6-Ethoxy-[1,2,3,4,5]pentathiepino[6,7-a]indolizin-9-yl)(4-tosylpiperazinyl)methanone] |  | 30
